Where a name gives a salt, the structure may show the parent alone. Read-outs that look alike come from different tables or passages of the source. Values belong to the compound of their own block, whether it stands above or below them.
Molecular target: T1, protein farnesyltransferase (Rattus norvegicus, UniProt Q02293+Q04631)
T1 construct: The enzyme is purified according to Reiss, Y., et al., Cell, 62: 81-88 (1990), utilizing steps one through three; from tissue; host or cells: rat brain
Assay: Inhibition of farnesyltransferase (scintillation proximity assay, rat brain enzyme, biotin-K Ras B fragment substrate)
Type: biochemical
Settings: for % inhibition of farnesyltransferase at 1 × 10^-5 M: 1 × 10^-5 M (Table 1); for % inhibition of farnesyltransferase at 1 × 10^-6 M / inhibition at 1 µM: 1 × 10^-6 M (Table 2); for inhibition at 1 µM: read-out: % inhibition of farnesyltransferase at 1 × 10^-6 M
Excerpt: The ability of the compounds of the invention to inhibit protein farnesyltransferase or protein geranylgeranyltransferase can be measured according to the method of Moores, et al., J. Biol. Chem. 266: 14603 (1991) or the method of Vogt, et al., J. Biol. Chem. 270:660-664 (1995). In addition, procedures for determination of the inhibition of farnesylation of the oncogene protein Ras are described by Goldstein, et al., J. Biol. Chem., 266:15575-15578 (1991) and by Singh in U.S. Pat. No. 5,245,061.
In addition, in vitro inhibition of protein farnesyltransferase may be measured by the following procedure. Rat brain protein farnesyltransferase activity is measured using an Amersham Life Science commercial scintillation proximity assay kit and substituting a biotin-K Ras B fragment (biotin-[…]Ble-Met-CO2 H), […] final concentration, for the biotin-lamin substrate provided by Amersham. The enzyme is purified according to Reiss, Y., et al., Cell, 62: 81-88 (1990), utilizing steps one through three.
The % inhibition of protein farnesyltransferase was determined for representative compounds of the invention.

[1] = read-out: % inhibition at 0.1 μM (*), Table 6, * = 0.1 μM (footnote), title prints 0.1 mM

T1 sequence (Q02293 whole entry, one chain of several): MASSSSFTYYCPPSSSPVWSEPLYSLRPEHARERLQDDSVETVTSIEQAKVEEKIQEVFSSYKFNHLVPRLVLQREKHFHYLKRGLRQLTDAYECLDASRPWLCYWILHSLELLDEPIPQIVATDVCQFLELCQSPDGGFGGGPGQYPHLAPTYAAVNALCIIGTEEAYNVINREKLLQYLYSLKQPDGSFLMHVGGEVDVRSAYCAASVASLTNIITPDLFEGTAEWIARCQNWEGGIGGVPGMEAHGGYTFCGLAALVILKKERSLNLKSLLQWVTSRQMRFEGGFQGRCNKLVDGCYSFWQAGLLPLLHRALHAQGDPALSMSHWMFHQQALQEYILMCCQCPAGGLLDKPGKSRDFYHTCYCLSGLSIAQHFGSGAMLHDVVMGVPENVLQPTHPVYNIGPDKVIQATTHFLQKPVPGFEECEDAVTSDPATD

Compound: CSCC[C@H](NC(=O)c1ccc(CN2CCC[C@H]2CN(C)C2CCCCC2)cc1-c1ccccc1C)C(=O)O [Example 1127]
- inhibition at 0.1 µM [1]: 90%

Compound: CCCCS(=O)(=O)N(CCC1CCCCC1)Cc1ccc(C(=O)N[C@@H](CCSC)C(=O)O)c(-c2ccccc2C)c1 [Example 916]
- % inhibition of farnesyltransferase at 1 × 10^-8 M (1 × 10^-8 M (Table 4)): 96%

Compound: Cc1ccccc1-c1cc(CCc2cccc(Oc3ccccc3)c2)ccc1C(=O)N[C@@H](CC[S+](C)[O-])C(=O)O (stereo partly shown) [Example 460, N-[4-(2-(3-phenoxyphenyl)ethyl)-2-(2-methylphenyl)benzoyl]-2-amino-4-methylsulfinylbutanoic acid lithium salt]
- inhibition at 1 µM: 88%

Compound: COc1ccccc1COCc1ccc(C(=O)N[C@@H](CCSC)C(=O)[O-])c(-c2ccccc2C)c1.[Li+] [Example 931]
- % inhibition of farnesyltransferase at 1 × 10^-7 M (1 × 10^-7 M (Table 3)): 98%

Compound: CSCC[C@H](NC(=O)c1ccc(CO[C@@H](CC2CCCCC2)CN2CCOCC2)cc1-c1ccccc1C)C(=O)O [Example 885]
- % inhibition of farnesyltransferase at 1 × 10^-8 M (1 × 10^-8 M (Table 4)): 95%

Compound: CCCC[C@H](CC1CCCCC1)NCc1ccc(C(=O)N[C@@H](CCSC)C(=O)O)c(-c2ccccc2C)c1 [Example 615]
- % inhibition of farnesyltransferase at 1 × 10^-7 M (1 × 10^-7 M (Table 3)): 94%

Compound: CSCC[C@H](NC(=O)c1ccc(CNCC(=O)N(Cc2ccccc2)Cc2ccccc2)cc1-c1ccccc1C)C(=O)O [Example 914]
- % inhibition of farnesyltransferase at 1 × 10^-7 M (1 × 10^-7 M (Table 3)): 91%

Compound: CSCC[C@H](NC(=O)c1ccc(CSCC2CCCCC2)cc1-c1ccccc1C)C(=O)[O-].[Li+] [Example 559]
- % inhibition of farnesyltransferase at 1 × 10^-7 M (1 × 10^-7 M (Table 3)): 96%

Compound: CSCC[C@H](NC(=O)c1ccc(CCc2ccccc2Oc2ccccc2)cc1-c1ccccc1C)C(=O)O [Example 455, N-[4-(2-(2-phenoxyphenyl)ethyl)-2-(2-methylphenyl)benzoyl]methionine lithium salt]
- inhibition at 0.1 µM (read-out: % inhibition of farnesyltransferase at 1 × 10^-7 M, 1 × 10^-7 M (Table 3)): 83%

Compound: C=C[C@H](CC1CCCCC1)NCc1ccc(C(=O)N[C@@H](CCSC)C(=O)O)c(-c2ccccc2C)c1 [Example 619]
- % inhibition of farnesyltransferase at 1 × 10^-8 M (1 × 10^-8 M (Table 4)): 95%

Compound: CSCC[C@H](NC(=O)c1ccc(CO[C@H](CSC(C)(C)C)Cc2ccccc2)cc1-c1ccccc1C)C(=O)O [Example 994]
- % inhibition of farnesyltransferase at 1 × 10^-8 M (1 × 10^-8 M (Table 4)): 83%

Compound: CSCC[C@H](NC(=O)c1ccc(COCc2cccc(C(C)C)c2)cc1-c1ccccc1C)C(=O)[O-].[Li+] [Example 939]
- % inhibition of farnesyltransferase at 1 × 10^-8 M (1 × 10^-8 M (Table 4)): 72%

Compound: CSCC[C@H](NC(=O)c1ccc(CCc2ccc(Oc3ccc(Cl)cc3)cc2)cc1-c1ccccc1C)C(=O)O [Example 860, N-[4-(2-(4-(4-chlorophenoxy)phenyl)ethyl)-2-(2-methylphenyl)benzoyl]methionine]
- inhibition at 0.01 µM (read-out: % inhibition of farnesyltransferase at 1 × 10^-8 M, 1 × 10^-8 M (Table 4)): 85%

Compound: CSCC[C@H](NC(=O)c1ccc(COCc2ccccc2C)cc1-c1ccccc1C)C(=O)[O-].[Li+] [Example 577]
- % inhibition of farnesyltransferase at 1 × 10^-6 M: 94%

Compound: CSCC[C@H](NC(=O)c1ccc(CN[C@H](CSC(C)(C)C)CC2CCCCC2)cc1-c1ccccc1C)C(=O)O [Example 622]
- % inhibition of farnesyltransferase at 1 × 10^-7 M (1 × 10^-7 M (Table 3)): 95%

Compound: CSCC[C@H](NC(=O)c1ccc(CN(C(=O)c2ccccc2)C(CC2CCCCC2)CC2CCCCC2)cc1-c1ccccc1C)C(=O)O [Example 910]
- % inhibition of farnesyltransferase at 1 × 10^-6 M: 42%

Compound: CSCC[C@H](NC(=O)c1ccc(CN(C(C)C)C2(Cc3ccccc3)CCC2)cc1-c1ccccc1C)C(=O)O [Example 331]
- inhibition at 1 µM: 98%

Compound: CSCC[C@H](NC(=O)c1ccc(COCCCC2CCCCC2)cc1-c1ccccc1C)C(=O)O [Example 405]
- % inhibition of farnesyltransferase at 1 × 10^-6 M: 98%

Compound: CSCC[C@H](NC(=O)c1ccc(COC(Cc2ccccc2)c2ccco2)cc1-c1ccccc1C)C(=O)[O-].[Li+] (stereo partly shown) [Example 534]
- % inhibition of farnesyltransferase at 1 × 10^-7 M (1 × 10^-7 M (Table 3)): 84%

Compound: CSCC[C@H](NC(=O)c1ccc(CN(C)C(CC2CCCCC2)C(=O)N2CCOCC2)cc1-c1ccccc1C)C(=O)O (stereo partly shown) [Example 302]
- inhibition at 1 µM: 31%

Compound: N-[4-(4-phenylcyclohexylidenyl)-2-(2-methylphenyl)benzoyl]methionine lithium salt [Example 789]
- % inhibition of farnesyltransferase at 1 × 10^-6 M: 86%

Compound: CSCC[C@H](NC(=O)c1ccc(COCc2cnc(-c3ccccc3Cl)s2)cc1-c1ccccc1C)C(=O)[O-].[Li+] [Example 897]
- % inhibition of farnesyltransferase at 1 × 10^-8 M (1 × 10^-8 M (Table 4)): 76%

Compound: CSCC[C@H](NC(=O)c1ccc(COCc2cc(-c3ccc(Cl)cc3)co2)cc1-c1ccccc1C)C(=O)[O-].[Li+] [Example 904]
- % inhibition of farnesyltransferase at 1 × 10^-8 M (1 × 10^-8 M (Table 4)): 85%

Compound: CCSC[C@H](CC(C)C)N(C)Cc1ccc(C(=O)N[C@@H](CCSC)C(=O)O)c(-c2ccccc2C)c1 [Example 906]
- % inhibition of farnesyltransferase at 1 × 10^-7 M (1 × 10^-7 M (Table 3)): 88%

Compound: CSCC[C@H](NC(=O)c1ccc(/C=C/c2ccc(Oc3ccc(Cl)cc3)cc2)cc1-c1ccccc1C)C(=O)O [Example 1016, N-[4-(2-(4-(4-chlorophenoxy)phenyl)ethen-1-yl)-2-(2-methylphenyl)benzoyl]methionine lithium salt]
- inhibition at 0.1 µM [1]: 92%

Compound: CSCC[C@H](NC(=O)c1ccc(-c2ccc(-c3ccccc3)cc2)cc1-c1ccccc1C)C(=O)O [Example 788, N-[4-(4-phenylphenyl)-2-(2-methylphenyl)benzoyl]methionine lithium salt]
- inhibition at 1 µM: 44%

Compound: CSCC[C@H](NC(=O)c1ccc(CN(CCC2CCCCC2)S(C)(=O)=O)cc1-c1ccccc1C)C(=O)O [Example 611]
- % inhibition of farnesyltransferase at 1 × 10^-7 M (1 × 10^-7 M (Table 3)): 95%

Compound: CCSCC(CC1CCCCC1)NCc1cc(-c2ccccc2C)c(C(=O)N[C@@H](CCSC)C(=O)O)cc1F (stereo partly shown) [Example 1134]
- % inhibition at 0.01 μM (**) (Table 6, ** = 0.01 μM (footnote), title prints 0.01 mM): 95%

Results, then the compound that gave them:

- % inhibition of farnesyltransferase at 1 × 10^-7 M (1 × 10^-7 M (Table 3)): 93%
Compound: CSCC[C@H](NC(=O)c1ccc(CSc2ccc3ccccc3c2)cc1-c1ccccc1C)C(=O)O [Example 551]

- % inhibition of farnesyltransferase at 1 × 10^-7 M (1 × 10^-7 M (Table 3)): 60%
Compound: CSCC[C@H](NC(=O)c1ccc(CSc2nc3cc(C)ccc3[nH]2)cc1-c1ccccc1C)C(=O)O [Example 733]

- % inhibition of farnesyltransferase at 1 × 10^-5 M: 69%
Compound: CSCC[C@H](NC(=O)c1ccc(CNCc2cc(Cl)cc(Cl)c2)cc1-c1ccccc1)C(=O)O [Example 712]

- inhibition at 0.01 µM (read-out: % inhibition at 0.01 μM (**), Table 6, ** = 0.01 μM (footnote), title prints 0.01 mM): 87%
Compound: CSCC[C@H](NC(=O)c1ccc(Cc2nnnn2Cc2ccccc2)cc1-c1ccccc1C)C(=O)O [Example 1099, N-[4-(1-benzyltetrazol-5-ylmethyl)-2-(2-methylphenyl)benzoyl]methionine]

- % inhibition of farnesyltransferase at 1 × 10^-6 M: 32%
Compound: CSCC[C@H](NC(=O)c1ccc(NC(=O)C[C@H]2C[C@@H](C(C)=O)C2(C)C)cc1-c1ccccc1)C(=O)O [Example 751]

- % inhibition of farnesyltransferase at 1 × 10^-7 M (1 × 10^-7 M (Table 3)): 91%
Compound: CSCC[C@H](NC(=O)c1ccc(CN(c2ccccc2)S(=O)(=O)c2ccc(C)cc2)cc1-c1ccccc1C)C(=O)O [Example 770]

- % inhibition of farnesyltransferase at 1 × 10^-6 M: 87%
Compound: COC(=O)c1cscc1NCc1ccc(C(=O)N[C@@H](CCSC)C(=O)O)c(-c2ccccc2C)c1 [Example 724]

- % inhibition of farnesyltransferase at 1 × 10^-5 M: 48%
Compound: CSCC[C@H](NC(=O)c1ccc(CNc2cccc(CC(=O)O)c2)cc1-c1ccccc1)C(=O)O [Example 684]

- inhibition at 1 µM: 95%
Compound: CSCC[C@H](NC(=O)c1ccc(CCc2cnc(Oc3ccccc3)cn2)cc1-c1ccccc1C)C(=O)O [Example 813, lithium salt]

- % inhibition of farnesyltransferase at 1 × 10^-5 M: > 50%
Compound: CSCC[C@H](NC(=O)c1ccc(NC(=O)[C@@H]2C[C@@H](O)CN2)cc1-c1ccccc1)C(=O)O [Example 952]

- % inhibition of farnesyltransferase at 1 × 10^-8 M (1 × 10^-8 M (Table 4)): 86%
Compound: CCSC[C@H](CC(C)C)NCc1ccc(C(=O)N[C@@H](CCSC)C(=O)O)c(-c2ccccc2C)c1 [Example 905]

- % inhibition of farnesyltransferase at 1 × 10^-6 M: 40%
Compound: CSCC[C@H](NC(=O)c1ccc(NC(=O)Cc2ccccc2)cc1-c1ccccc1C)C(=O)O [Example 540]

- % inhibition of farnesyltransferase at 1 × 10^-5 M: 78%
Compound: CSCC[C@H](NC(=O)c1ccc(CNc2ccc(F)cc2)cc1-c1ccccc1)C(=O)O [Example 687]

- inhibition at 1 µM: 93%
Compound: CSCC[C@H](NC(=O)c1ccc(CN(C2CC2)C(C)(C)Cc2ccccc2)cc1-c1ccccc1C)C(=O)O [Example 315]

- % inhibition of farnesyltransferase at 1 × 10^-5 M: 61%
Compound: CSCC[C@H](NC(=O)c1ccc(CNc2nccs2)cc1-c1ccccc1)C(=O)O [Example 374]

- % inhibition of farnesyltransferase at 1 × 10^-8 M (1 × 10^-8 M (Table 4)): 89%
Compound: CCCCC(OCc1ccc(C(=O)N[C@@H](CCSC)C(=O)O)c(-c2ccccc2C)c1)c1cncs1 (stereo partly shown) [Example 985]

- inhibition at 1 µM: 41%
Compound: CSCC[C@H](NC(=O)c1ccc(N2CC(=O)NNC2=O)cc1-c1ccccc1)C(=O)O [Example 224]

- % inhibition of farnesyltransferase at 1 × 10^-7 M (1 × 10^-7 M (Table 3)): 49%
Compound: CSCC[C@H](NC(=O)c1ccc(CSc2nnc(N)s2)cc1-c1ccccc1C)C(=O)O [Example 734]

- inhibition at 1 µM: 54%
Compound: CSCC[C@H](NC(=O)c1ccc(CN(C(C)C)C(C)(C)Cc2ccccc2)cc1-c1ccccc1C)C(=O)O [Example 317]

- % inhibition of farnesyltransferase at 1 × 10^-8 M (1 × 10^-8 M (Table 4)): 92%
Compound: CCSC[C@H](CCc1ccccc1)NCc1ccc(C(=O)N[C@@H](CCSC)C(=O)O)c(-c2ccccc2C)c1 [Example 995]

- % inhibition of farnesyltransferase at 1 × 10^-6 M: 85%
Compound: CSCC[C@H](NC(=O)c1ccc(CNCCSC(C)(C)C)cc1-c1ccccc1)C(=O)O [Example 627]

From patent US6221865A, “Inhibitors of protein isoprenyl transferases” (priority 1998, dated 2001)
